Like-named read-outs stand apart in the source and are kept apart here.
Assays:
[1] = system: ASIC1a, ASIC1b, ASIC2a and ASIC3 channels; details: ref [7],[13]; read-out: IC50, inhibition of ASIC1a, ASIC1b, ASIC2a and ASIC3 channels; cited from earlier work
Excerpt: Some non-selective, low-molecular ligands of ASIC channels, acting at micromolar concentrations, are enabled for clinical medicine and veterinary procedure: local anesthetics (lidocaine and tetracaine), nonsteroidal anti-inflammatory drugs (NSAIDs) (ibuprofen, aspirin, and diclofenac), potassium-sparing diuretic amiloride and the antibacterial/antiparasitic drug, diminazene. […] Preclinical and clinical stu ...

ASIC3 = details: cited from earlier work
Excerpt: Some non-selective, low-molecular ligands of ASIC channels, acting at micromolar concentrations, are enabled for clinical medicine and veterinary procedure: local anesthetics (lidocaine and tetracaine), nonsteroidal anti-inflammatory drugs (NSAIDs) (ibuprofen, aspirin, and diclofenac), potassium-sparing diuretic amiloride and the antibacterial/antiparasitic drug, diminazene. […] Preclinical and clinical stu ... || Venom-derived toxins affecting ASICs may cause pain or, on the contrary, have analgesic, anti-inflammatory or neuroprotective effects. The first identified peptide agonist of ASIC channels, from the venom of the coral snake Micrurus tener tener, is a complex of MitTxα (Kunitz fold) and MitTxβ (phospholipase A2-like protein) subunits.

ASIC1b = details: ref [36]; cited from earlier work
ASIC2a = details: ref [36]; cited from earlier work
[2] = cited from earlier work
Excerpt: (§1) Venom-derived toxins affecting ASICs may cause pain or, on the contrary, have analgesic, anti-inflammatory or neuroprotective effects. The first identified peptide agonist of ASIC channels, from the venom of the coral snake Micrurus tener tener, is a complex of MitTxα (Kunitz fold) and MitTxβ (phospholipase A2-like protein) subunits.

hERG channels = system: hERG channels; set-up: method as in PMID 29134638; details: ref [36]; cited from earlier work
NaV1.8 = system: NaV1.8; set-up: method as in PMID 29134638; details: ref [36]; cited from earlier work
[3] = 1 mg/kg intramuscularly; ref [34]; cited from earlier work
Excerpt: (§2) Contradictory results concerning the involvement of ASIC1a channels in the antidepressant activity and the in vivo effects of ASIC1a inhibitors, namely tarantula toxin, PcTx1, have been published earlier. Thus, in a number of experiments, it was shown that ASI ...

[4] = ref [34]; cited from earlier work
[5] = eight hours after a stroke; ref [18],[19]; cited from earlier work
ASIC1a = details: ref [20]; cited from earlier work
Excerpt: as §1

rats = details: ref [53]; cited from earlier work
Excerpt: as §2

CD-1 mice [6] = test: Acetic-acid-induced writhings (acid-induced muscle pain model); type: in vivo, mouse; details: 1 mg/kg i.v.
Procedure: (§3) The animal studies were performed under the European Commission’s legislation (Directives 86/609/EEC, 2010/63/EU), the National Standard of the Russian Federation “Good Laboratory Practice” (GOST P 53434-2009, Moscow, Russia), and Committee on Ethics of Laboratory Animal Handling № 05/21, 20 September 2021 and 08/21, 30 December 2021 protocols (PIBOC FEB RAS). Adult female CD-1 mice weighing 25 ± 2 g were subjected to a 12 h light–dark cycle at room temperature and with ad libitum access to food and water. There were seven or eight individuals in each group.
Three groups of animals were treated with peptides at doses of 0.01, 0.1 and 1 mg/kg (intravenously) 15 min before an injection of 300 μL of a 0.7% acetic acid solution. The control animal group received an identical volume of saline. The positive control group received intravenously a dose 1 mg/kg of diclofenac (Hemofarm A.D., Vršac, Serbia), a commercial drug of the NSAID group. Fifteen minutes immediately after acid administration, the number of writhings and the writhing time (time in a spasmodic state) were counted.

CD-1 mice [7] = test: Hot plate test; type: in vivo, mouse; details: 52 °C
Procedure: as §3
Thermal analgesia was tested with a Hot Plate Analgesia Meter (IITC Life Science Inc., Woodland Hills, CA, USA). Measurements were carried out 15 min after the intravenous injection of peptides at doses of 0.1 and 1 mg/kg. The control animals received 300 µL of sterile saline. Metamizole (Pharmstandard, Russia) was used as a positive control administrated intraperitoneally at a dose of 500 mg/kg 30 min before testing. Animals were placed individually on the preheated surface of a plate (up to 52 °C), and nociceptive reactions, withdrawal, or licking of the front and hind legs were recorded.

CD-1 mice [8] = test: Carrageenan-induced paw edema; type: in vivo, mouse; details: 1 mg/kg
Procedure: as §3
Three groups of animals were treated with peptides at doses of 0.01, 0.1 and 1 mg/kg (intravenously) 30 min before the induction of inflammation. The control animal group received an identical volume of saline. The positive control group received diclofenac (Hemofarm A.D., Vršac, Serbia) at a dose of 1 mg/kg. The edema was induced by a 20 µL injection of 1.5% solution of λ-carrageenan (Sigma Aldrich, St. Louis, MO, USA) in the hind paw pad. The resulting edema was measured after 1, 2, 4 and 24 h using a plethysmometer (Ugo Basile, Gemonio (VA), Italy). The anti-inflammatory threshold was estimated as a decrease in the paw volume and volume growth index (%), calculated using the formula: Volume Growth Index (%) = [(VC − Vi)/Vi] × 100, (1), where VC is the volume of the paw after the introduction of carrageenan and Vi is the volume of the paw before the introduction of carrageenan.

ASICs = details: ref [45]; cited from earlier work

## N=C(N)NC(=O)c1nc(Cl)c(N)nc1N [amiloride]
[1]
  IC50: 5 to 100 µM

## APETx2
ASIC3; ref [20], read-out: IC50, ASIC3
  IC50: 0.037 to 0.063 µM
ASIC1b
  effect on ASIC1b: potentiation
ASIC2a
  effect on ASIC2a: potentiation
[2]; ref [34]
  effect on edema: partially reduces edema
hERG channels
  hERG inhibition: ability to inhibit hERG channels
NaV1.8
  NaV1.8 inhibition: inhibition
[3]
  locomotion and CNS-mediated behavior: did not impair locomotion and the CNS-mediated behavior in the open field test
[4]
  antihyperalgesia: induces antihyperalgesia in an acid-induced muscle pain model

## PcTx1: ICK-peptide from the tarantula Psalmopoeus cambridgei
[5]
  neuroprotection after stroke: ineffective
[2]; ref [23]
  antinociceptive effect: strong antinociceptive effect in the acute and neuropathic pain models
ASIC1a
  IC50: 0.0003 to 0.0037 µM
rats
  anxiety levels: increases anxiety levels in rats

## O=C(O)Cc1ccccc1Nc1c(Cl)cccc1Cl [Diclofenac]
CD-1 mice [6]
  effect on writhings, positive control: reduced the number of writhings
CD-1 mice [7]; peptides 0.1 and 1 mg/kg i.v.
  analgesic effect in hot plate test: did not affect the pain sensitivity in this test
CD-1 mice [8]
  anti-inflammatory effect, positive control: reduced inflammation more rapidly (1–24 h range)
ASIC3; ref [45], read-out: IC50, sustained current component of ASIC3
  IC50: 92 ± 19 µM
ASICs
  inflammation-induced expression of ASICs: decreases the inflammation-induced expression of ASICs

## Cc1c(N(C)CS(=O)(=O)O)c(=O)n(-c2ccccc2)n1C [Metamizole sodium]
CD-1 mice [7]; 500 mg/kg i.p. 30 min before testing
  increase in latent time of licking both front and hind paws: more than 1.5 times

Reference: publication PMC10221320
